# Results taken from patent US6124324A, “Thiophene-ethyl thiourea compounds and use” (Hughes Institute, priority 1999, dated 2000).
# Like-named read-outs stand apart in the source and are kept apart here.
# Experiments:
# [1] = test system: HIV-1 strain HTLVIIIB; experiment: Inhibition of replication of HIV-1 strain HTLVIIIB in PBMC (p24 antigen EIA); assay type: cell-based
# Description: (§1) In addition, the anti-HIV activity of the compounds was measured by determining their ability to inhibit the replication of the HIV-1 strains HTLVIIIB, RT-MDR, A17, and A17 variant in peripheral blood mononuclear cells (PBMC) from healthy volunteer donors, using the method described in Uckun et.al., 1998, Antimicrobial Agents and Chemotherapy 42:383.
# (§2) Normal human peripheral blood mononuclear cells (PBMNC) from HIV-negative donors were cultured 72 hours in RPMI 1640 supplemented with 20% (v/v) heat-inactivated fetal bovine serum (FBS), 3% interleukin-2,2 mM L-glutairine, 25 mM HEPES, 2 μL, NAHCO, […] gentamicin, and 4 Ag/mL phytohemagglutinin prior to exposure to HIV-1 or other HIV strain. The cells were then infected with virus at a multiplicity of infection (MOI) of 0.1 during a one-hour adsorption period at 37° C. in a humidified 5% CO2 atmosphere. Subsequently, cells were cultured in 96-well microplates (100 μL/well; 2×10^6 cells/mL, triplicate wells) in the presence of various inhibitor concentrations. Aliquots of culture supernatants were removed from the wells on the 7 th day after infection for p24 antigen p24 enzyme immunoassays (EIA), as previously described in Erice et al., 1993, Antimicrob. Ag. Chemotherapy 37:385-838. The applied p24 EIA was the unmodified kinetic assay commercially available from Coulter Corporation/Immunotech, Inc. (Westbrook, Me.).
# (§3) Percent inhibition of viral replication was calculated by comparing the p24 values from the test substance-treated infected cells with p24 values from untreated infected cells (i.e, virus controls). […]
# [2] = test system: HIV-1 strain A17 (Y181C); experiment: microbe, parasite or virus in culture; assay type: cell-based; conditions: for IC50: read-out: IC50 A17 (Y181C)
# Description: as §1, §2, §3
# [3] = Microculture Tetrazolium Assay (MTA), cytotoxicity; assay type: cell-based
# Description: A Microculture Tetrazolium Assay (MTA), using 2,3-bis(2-methoxy-4-nitro-5-sulfophenyl)-5-[(phenylamino)-carbonyl]-2H-tetrazolium hydroxide (XTT), was performed to evaluate the cytotoxicity of the compounds, using the methods described, for example, in Uckun et.al., 1998, Antimicrobial Agents and Chemotherapy 42:383; and Mao et.al., 1998, Bioorg. Med. Chem. Lett. 8:2213.
# [4] = test system: HIV-1 strain RT-MDR (V106A); experiment: microbe, parasite or virus in culture; assay type: cell-based; conditions: for IC50: read-out: IC50 RT-MDR (V106A); for effectiveness against RT-MDR versus HTLVIIIB: more effective against RT-MDR than against HTLVIIIB
# Description: as §1, §2
# (§4) Percent inhibition of viral replication was calculated by comparing the p24 values from the test substance-treated infected cells with p24 values from untreated infected cells (i.e, virus controls).
# (§5) RT-MDR was obtained through the AIDS Research and Reference Reagent Program, from Dr. Bendan Larder, and is described in Larder et al., 1993, Nature, 365, 451-453.
# [5] = test system: HIV-1 strain A17 variant (Y181C, K103N); experiment: microbe, parasite or virus in culture; assay type: cell-based
# Description: as §1, §2, §4, §5
# [6] = target: T1, purified recombinant HIV RT (Human immunodeficiency virus type 1 group M subtype B, UniProt P04585); experiment: Purified RT assay, cell-free Quan-T-RT system (scintillation proximity); assay type: biochemical
# T1 construct: purified recombinant HIV RT; purchased Amersham, Arlington Heights, Ill; (Quan-T-RT system)
# Description: The synthesized compounds were tested for RT inhibitory activity (IC50 [rRT]) against purified recombinant HIV RT using the cell-free Quan-T-RT system (Amersham, Arlington Heights, Ill.), which utilizes the scintillation proximity assay principle as decribed in Bosworth, et al., 1989, Nature 341:167-168. In the assay, a DNA/RNA template is bound to SPA beads via a biotin/strepavidin linkage. The primer DNA is a 16-mer oligo(T) which has been annealed to a poly(A) template. The primer/template is bound to a strepavidin-coated SPA bead.
# ^3 H-TTP is incorporated into the primer by reverse transcription. In brief, ^3 H-TTP, at a final concentration of 0.5 μCi/sample, was diluted in RT assay buffer (49.5 mM Tris-Cl, pH 8.0, 80 mM KCl, 10 Mm MgCl2, 10 mM DTT, 2.5 mM EGTA, 0.05% Nonidet-P-40), and added to annealed DNA/RNA bound to SPA beads. The compound being tested was added to the reaction mixture at 0.001 μM-100 μM concentrations. […] The reaction was stopped by addition of 0.2 ml of 120 mM EDTA. The samples were counted in an open window using a Beckman LS 7600 instrument and IC50 values were calculated by comparing the measurements to untreated samples.
# [7] = test system: NNI-resistant HIV-1 strains; conditions: earlier publication (Mao et al., 1999); cited from earlier work
# [8] = test system: HIV-1 strain HTLVIIIB; conditions: earlier publication (Mao et al.), cited from earlier work; for antiviral potency relative to trovirdine: HTLVIIIB; for abrogated the replication of HTLVIIIB: human PBMC
# [9] = Human immunodeficiency virus 1, IIIB, inhibition of p24 antigen production in PBMC, read-out: IC50 HTLV IIIB
# [10] = Human immunodeficiency virus 1, PBMC
# [11] = XTT cytotoxicity, read-out: CC50 MTA
# [12] = Human immunodeficiency virus 1, PBMC, read-out: IC50 A17 Varient (Y181C, K103N)
# [13] = IC50 rRT, Table 2; recombinant HIV RT
# [14] = inhibition of p24 antigen production in PBMC
# [15] = inhibition of p24 antigen production in PBMC, read-out: IC50 A17 Varient (Y181C, K103N)
# [16] = IC50 rRT, Table 1 and text; recombinant HIV RT
# [17] = Table 1 and text; recombinant HIV RT; read-out: IC90 rRT
# [18] = Human immunodeficiency virus 1, IIIB, PBMC, read-out: IC50 HTLV IIIB
smiles,measurement,setting,value
"Fc1ccccc1CCNC(=S)Nc1ccc(Br)cn1 [HI-240, N-[2-(2-fluorophenethyl)]-N'-[2-(5-bromopyridyl)]thiourea]",IC50,[1]; [9],< 1 nM
same,IC50,[2]; [10],200 nM
same,CC50,[3]; [11],> 100000 nM
same,IC50,[4]; [10],5 nM
same,IC50,[5]; [12],41000 nM
"S=C(NCCN1CCCCC1)Nc1ccc(Br)cn1 [HI-172, N-[2-(1-piperidinoethyl)]-N'-[2-(5-bromopyridyl)]thiourea]",IC50,[6]; [13],600 nM
same,IC50,[1]; [9],< 1 nM
same,inhibition of replication of NNI-resistant HIV-1 strains,[7],neither compound inhibited the replication
same,IC50,[2]; [10],> 100000 nM
same,antiviral potency relative to trovirdine,[8],more potent than trovirdine
same,abrogated the replication of HTLVIIIB,[8],nanomolar concentrations
same,CC50,[3]; [11],> 100000 nM
same,IC50,[4]; [10],> 100000 nM
same,IC50,[5]; [12],> 100000 nM
"Cc1cn([C@H]2C[C@H](N=[N+]=[N-])[C@@H](CO)O2)c(=O)[nH]c1=O [AZT, reference compound]",IC50,[6]; [13],> 100000 nM
same,IC50,[2]; [14],6 nM
same,CC50,[3]; [11],> 100000 nM
same,IC50,[4]; [14],200 nM
same,IC50,[5]; [15],4 nM
"S=C(NCCc1cnc[nH]1)Nc1ccc(Br)cn1 [HI-436, N-[2-(5-Bromopyridinyl)]-N'-[2-(2-Imidazolylethyl)]thiourea]",IC50,[6]; [16],> 100000 nM
same,IC90,[6]; [17],> 100000 nM
"S=C(NCc1ccco1)Nc1ccc(Br)cn1 [HI-503, N-[2-(5-Bromopyridinyl)]-N'-[2-(2-Furylmethyl)]thiourea]",IC50,[6]; [16],1200 nM
same,IC90,[6]; [17],> 100000 nM
"S=C(NCCN1CCCC1)Nc1ccc(Br)cn1 [HI-230, N-[2-(1-pyrolidylethyl)]-N'-[2-(5-bromopyridyl)]thiourea]",IC50,[6]; [16],4900 nM
same,IC90,[6]; [17],> 100000 nM
"S=C(NCCc1c[nH]c2ccccc12)Nc1ccc(Br)cn1 [HI-442, N-[2-(5-Bromopyridinyl)]-N'-[2-(3-Indolylethyl)]thiourea]",IC50,[6]; [16],900 nM
same,IC90,[6]; [17],> 100000 nM
"CN1CCCC1CCNC(=S)Nc1ccc(Br)cn1 (stereo not shown) [HI-206, N-[2-(1-methyl-2-pyrrolidinylethyl)]-N'-[2-(5 bromopyridyl)]thiourea]",IC50,[6]; [16],> 100000 nM
same,IC90,[6]; [17],> 100000 nM
"S=C(NCc1ccc2c(c1)OCO2)Nc1ccc(Br)cn1 [HI-257, N-[2-(1-piperonyl)]-N'-[2-(5-bromopyridyl)]thiourea]",IC50,[6]; [16],700 nM
same,IC90,[6]; [17],> 100000 nM
"CCOCn1c(Cc2ccccc2)c(C(C)C)c(=O)[nH]c1=O [MKC-442, reference compound]",CC50,[3],> 100000 nM
same,IC50,[4]; [10],300 nM
"CC(C)Nc1cccnc1N1CCN(C(=O)c2cc3cc(NS(C)(=O)=O)ccc3[nH]2)CC1 [Delavirdine, reference compound]",IC50,[1]; [9],9 nM
same,IC50,[2]; [10],50000 nM
same,IC50,[4]; [10],400 nM
same,IC50,[5]; [12],> 100000 nM
"S=C(NCCc1cccs1)Nc1ccc(Br)cn1 [HI-443, N-[2-(5-Bromopyridinyl)]-N'-[2-(2-Thiophenylethyl)]thiourea]",IC50,[6]; [16],800 nM
same,IC50,[6]; [13],5300 nM
same,IC90,[6]; [17],15000 nM
same,IC90,[6]; read-out: IC90 rRT; Table 1 and text; recombinant HIV RT,12000 nM
same,inhibited recombinant RT in vitro,[6]; recombinant RT in vitro,more than 90%
same,IC50,[1]; [18],30 nM
same,IC50,"[1]; Human immunodeficiency virus 1, PBMC, read-out: average IC50, HTLVIIIB replication",30 nM
same,IC50 HTLVIIIB relative to HI-172,[1]; times higher than IC50 of HI-172,30 times
same,IC50 HTLVIIIB relative to trovirdine,[1]; times higher than IC50 of trovirdine,5 times
same,IC50,[2]; [10],48 nM
same,potency against A17 relative to HI-172,[2]; more potent than HI-172,2083 times
same,potency against A17 relative to HI-240,[2]; more potent than HI-240,4.2 times
same,potency against A17 relative to delavirdine,[2]; more potent than delavirdine,1042 times
same,potency against A17 relative to nevirapine,[2]; more potent than nevirapine,2083 times
same,potency against A17 relative to trovirdine,[2]; more potent than trovirdine,10 times
same,CC50,[3]; [11],> 100000 nM
same,IC50,[4]; [10],4 nM
same,effectiveness against RT-MDR versus HTLVIIIB,[4],ten
same,effectiveness against RT-MDR versus HTLVIIIB,[4]; 10080 min,10 times
same,potency against RT-MDR relative to AZT,[4]; more potent than AZT,50 times
same,potency against RT-MDR relative to HI-172,[4]; more potent than HI-172,"25,000 times"
same,potency against RT-MDR relative to HI-240,[4]; more potent than HI-240,1.25 times
same,potency against RT-MDR relative to MKC-442,[4]; more potent than MKC-442,75 times
same,potency against RT-MDR relative to delavirdine,[4]; more potent than delavirdine,100 times
same,potency against RT-MDR relative to nevirapine,[4]; more potent than nevirapine,1250 times
same,potency against RT-MDR relative to trovirdine,[4]; more potent than trovirdine,5 times
same,IC50,"[5]; Human immunodeficiency virus 1, PBMC, read-out: IC50, A17 variant replication",3260 nM
same,IC50,[5]; [12],3260 nM
same,potency against A17 variant versus HTLVIIIB,"[5]; fold lower potency than HTLVIIIB, 10080 min",100 fold
"S=C(NCCN1CCOCC1)Nc1ccc(Br)cn1 [HI-276, N-[2-(5-Bromopyridinyl)]-N'-[2-(4-Morpholinoethyl)]thiourea]",IC50,[6]; [16],> 100000 nM
same,IC90,[6]; [17],> 100000 nM
"Cc1ccnc2c1NC(=O)c1cccnc1N2C1CC1 [Nevirapine, reference compound]",IC50,[1]; [9],34 nM
same,IC50,[2]; [14],> 100000 nM
same,IC50,[4]; [14],5000 nM
same,IC50,[5]; [15],> 100000 nM
"S=C(NCCN1CCNCC1)Nc1ccc(Br)cn1 [HI-258, N-[2-(1-piperizinylethyl)]-N'-[2-(5-bromopyridyl)]thiourea]",inhibition of replication of NNI-resistant HIV-1 strains,[7],neither compound inhibited the replication
same,antiviral potency relative to trovirdine,[8],more potent than trovirdine
same,abrogated the replication of HTLVIIIB,[8],nanomolar concentrations
"S=C(NCCc1ccccn1)Nc1ccc(Br)cn1 [Trovirdine, reference compound]",IC90,[6]; [17],12000 nM
same,inhibited recombinant RT in vitro,[6]; recombinant RT in vitro,more than 90%
same,IC50,[1]; [18],7 nM
same,IC50,[2]; [10],500 nM
same,CC50,[3],> 100000 nM
same,IC50,[4]; [10],20 nM
same,IC50,[5]; [12],> 100000 nM
